Experimental findings from patent publication US9963444B2, “N-acylethanolamine hydrolyzing acid amidase (NAAA) inhibitors and their use thereof” (Northeastern University, priority 2014, dated 2018) are described below.

The structures appear in SMILES notation. A value given as a limit tells only on which side of the number the result lay.

In one experiment the target is hNAAA (Homo sapiens (Human), UniProt Q02083). Nature of the experiment: Fluorescence-based NAAA inhibition assay with fluorogenic substrate PAMCA.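 Also: compound preincubated 15 min at room temperature with hNAAA, then PAMCA added at 5 µM, reacted 120 min at 37 °C, AMC release read by fluorescence (ex 360, em 460 nm).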
Sequence of hNAAA (Q02083 29-125): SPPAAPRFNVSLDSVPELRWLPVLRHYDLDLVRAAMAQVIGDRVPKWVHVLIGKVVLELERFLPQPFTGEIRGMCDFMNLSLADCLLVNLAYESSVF
Sequence of hNAAA (Q02083 126-359): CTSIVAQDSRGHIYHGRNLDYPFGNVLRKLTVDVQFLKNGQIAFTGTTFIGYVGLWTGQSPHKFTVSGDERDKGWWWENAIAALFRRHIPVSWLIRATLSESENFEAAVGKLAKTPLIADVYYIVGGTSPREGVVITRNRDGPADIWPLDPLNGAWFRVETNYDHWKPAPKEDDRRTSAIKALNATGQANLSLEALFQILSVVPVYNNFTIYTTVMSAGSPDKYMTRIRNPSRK
Conditions: not given
For the compound `COc1cccc(-c2ccc(COC3CN(C#N)C3)c(OC)c2)c1` [Example 80, 3-((3,3′-Dimethoxy-[1,1′-biphenyl]-4-yl)methoxy)azetidine-1-carbonitrile], the IC50 – broadly, the concentration needed to halve the response being measured – fell in the range of 0.01 to 0.1 µM.
The same measure, in the same setting: the value for `COc1cccc(-c2ccc(C(OC3CN(C#N)C3)c3ccccc3)cc2)c1` (stereo not shown) [Example 100, 3-((3′-Methoxy-[1,1′-biphenyl]-4-yl)(phenyl)methoxy)azetidine-1-carbonitrile] was 0.01 to 0.1 µM.
Compound `Fc1ccc(-c2ccc(CO[C@H]3C[C@@H](N=C=S)C3)c(F)c2)cc1` [Example 32, 3,4′-Difluoro-4-(((1S,3S)-3-isothiocyanatocyclobutoxy)methyl)-1,1′-biphenyl] yielded an IC50 of 0.11 to 1 µM.
Compound `COc1ccc(-c2ccc(COC3CN(C#N)C3)cc2)cc1` [Example 63, 3-((4′-Methoxy-[1,1′-biphenyl]-4-yl)methoxy)azetidine-1-carbonitrile] gave an IC50 of 0.01 to 0.1 µM.
Turning to `Cc1noc(C)c1-c1ccc(C(OC2CN(C#N)C2)c2ccccc2)cc1` (stereo not shown) [Example 101, 3-((4-(3,5-Dimethylisoxazol-4-yl)phenyl)(phenyl)methoxy)azetidine-1-carbonitrile], the IC50 is 0.01 to 0.1 µM.
For `N#CN1CC(OCc2ccc(-c3cccc(C(F)(F)F)c3)cc2)C1` [Example 70, 3-((3′-(Trifluoromethyl)-[1,1′-biphenyl]-4-yl)methoxy)azetidine-1-carbonitrile], the IC50 fell in the range of 0.01 to 0.1 µM.
For `N#CN1CC(OCc2ccc(-c3ccc(F)cc3)cc2)C1` [Example 77, 3-((4′-Fluoro-[1,1′-biphenyl]-4-yl)methoxy)azetidine-1-carbonitrile], the IC50 was 0.01 to 0.1 µM.
In turn, `COc1ccccc1-c1cc(Oc2ccccc2)ccc1COC1CN(C#N)C1` [Example 88, 3-((2′-Methoxy-5-phenoxy-[1,1′-biphenyl]-2-yl)methoxy)azetidine-1-carbonitrile] showed an IC50 of 0.01 to 0.1 µM.
In the case of `CC(C)Oc1ccc(-c2ccc(CO[C@H]3C[C@@H](N=C=S)C3)c(F)c2)cc1F` [Example 37, 3,3′-Difluoro-4-isopropoxy-4′-(((1S,3S)-3-isothiocyanatocyclobutoxy)methyl)-1,1′-biphenyl], the IC50 was 0.11 to 1 µM.
As to `N#CN1CC(OCc2ccc(-c3cc(C(F)(F)F)cc(C(F)(F)F)c3)cc2)C1` [Example 71, 3-((3′,5′-Bis(trifluoromethyl)-[1,1′-biphenyl]-4-yl)methoxy)azetidine-1-carbonitrile], the IC50 lay in the range of 0.01 to 0.1 µM.
For the compound `S=C=N[C@H]1C[C@@H](OCc2ccc(-c3ccccc3)cc2)C1` [Example 31, 4-(((1S,3S)-3-isothiocyanatocyclobutoxy)methyl)-1,1′-biphenyl], the IC50 was 0.11 to 1 µM.
In turn, `N#CN1CC(OCc2ccc(Oc3ccccc3)cc2)C1` [Example 81, 3-((4-Phenoxybenzyl)oxy)azetidine-1-carbonitrile] had an IC50 of 0.01 to 0.1 µM.
Turning to `N#CN1CC[C@H](OCc2ccc(-c3ccccc3)cc2)C1` [Example 104, (S)-3-([1,1′-Biphenyl]-4-ylmethoxy)pyrrolidine-1-carbonitrile], the IC50 fell in the range of 0.11 to 1 µM.
Still for that read-out and setting: the value for `N#CN1CC(OC(c2ccccc2)c2ccc(Br)cc2)C1` (stereo not shown) [Example 99, 3-((4-Bromophenyl)(phenyl)methoxy)azetidine-1-carbonitrile] was 0.01 to 0.1 µM; that for `N#CN1CC(OCc2cccc(-c3ccccc3)c2)C1` [Example 66, 3-([1,1′-Biphenyl]-3-ylmethoxy)azetidine-1-carbonitrile] was 0.01 to 0.1 µM.
`S=C=NCCCCCCCCCCc1ncccn1` [Example 20, 2-(10-Isothiocyanatodecyl)pyrimidine] gave a half-maximal inhibitory concentration (IC50) of 0.01 to 0.1 µM.
In turn, `Cc1ccc(-c2ccc(COC3CN(C#N)C3)cc2)cc1` [Example 76, 3-((4′-Methyl-[1,1′-biphenyl]-4-yl)methoxy)azetidine-1-carbonitrile] had an IC50 of 0.01 to 0.1 µM.
Same read-out and setting: the value for `S=C=NCCCCCCCCCCCc1ccccc1` [Example 21, (11-Isothiocyanatoundecyl)benzene] was 0.01 to 0.1 µM; that for `S=C=N[C@H]1C[C@@H](OCc2ccc(Oc3ccccc3)cc2Br)C1` [Example 49, 2-Bromo-1-(((1S,3S)-3-isothiocyanatocyclobutoxy)methyl)-4-phenoxybenzene] was 0.11 to 1 µM; that for `N#CN1CC(OCc2ccc(OC(c3ccc(F)cc3)c3ccc(F)cc3)cc2Br)C1` [Example 94, 3-((4-(Bis(4-fluorophenyl)methoxy)-2-bromobenzyl)oxy)azetidine-1-carbonitrile] was 0.01 to 0.1 µM.
Consider `COc1ccc(-c2ccc(O[C@H]3C[C@@H](N=C=S)C3)cc2)cc1F` [Example 52, 3-Fluoro-4′-((1S,3S)-3-isothiocyanatocyclobutoxy)-4-methoxy-1,1′-biphenyl], for which the IC50 was in the range of 0.01 to 0.1 µM.
As to `COc1ccc(-c2ccc(CO[C@H]3C[C@@H](N=C=S)C3)c(F)c2)cc1OC` [Example 40, 3-Fluoro-4-(((1S,3S)-3-isothiocyanatocyclobutoxy)methyl)-3′,4′-dimethoxy-1,1′-biphenyl], the half-maximal inhibitory concentration (IC50) lay in the range of 0.01 to 0.1 µM.
Still for that read-out and setting: next, `COc1ccc(-c2ccc(CO[C@H]3C[C@@H](N=C=S)C3)c(F)c2)cc1F` [Example 33, 3,3′-Difluoro-4-(((1S,3S)-3-isothiocyanatocyclobutoxy)methyl)-4′-methoxy-1,1′-biphenyl]: 0.01 to 0.1 µM; `COc1cccc(-c2cc(Oc3ccccc3)ccc2COC2CN(C#N)C2)c1` [Example 89, 3-((3′-Methoxy-5-phenoxy-[1,1′-biphenyl]-2-yl)methoxy)azetidine-1-carbonitrile]: 0.01 to 0.1 µM.
Compound `S=C=NCCCCCCCCCc1ccccc1` [Example 22, (9-Isothiocyanatononyl)benzene] returned an IC50 of 0.01 to 0.1 µM.
The compound `COc1cccc(-c2ccc(COC3CN(C#N)C3)c(C(F)(F)F)c2)c1` [Example 79, 3-((3′-Methoxy-3-(trifluoromethyl)-[1,1′-biphenyl]-4-yl)methoxy)azetidine-1-carbonitrile] gave a concentration for half-maximal inhibition (IC50) of 0.01 to 0.1 µM.
In turn, `N#CN1CC(OCc2ccc(-c3ccc4c(c3)OCCO4)cc2)C1` [Example 84, 3-((4-(2,3-Dihydrobenzo[b][1,4]dioxin-6-yl)benzyl)oxy)azetidine-1-carbonitrile] showed an IC50 of 0.01 to 0.1 µM.
In turn, `N#CN1CC(OCc2ccc(-c3ccc4c(c3)OCCO4)cc2)(c2ccccc2)C1` [Example 98, 3-((4-(2,3-Dihydrobenzo[b][1,4]dioxin-6-yl)benzyl)oxy)-3-phenylazetidine-1-carbonitrile] gave an IC50 of 0.01 to 0.1 µM.

Staying with this experiment, now noted: read-out: NAAA Inhibition IC50 μM; purified hNAAA, PAMCA 5 μM, pH 4.5.
In the case of `CCN(Cc1ccc(-c2ccc3c(c2)OCO3)cc1)C1CC(N=C=S)C1` [Example 56, (1R,3R)—N-(4-(benzo[d][1,3]dioxol-5-yl)benzyl)-N-ethyl-3-isothiocyanatocyclobutan-1-amine], the IC50 was 0.11 to 1 µM.
With `N#Cc1ncc(OCc2ccc(-c3ccccc3)cc2)cc1F` [Example 112, 5-([1,1′-Biphenyl]-4-ylmethoxy)-3-fluoropicolinonitrile], the IC50 was greater than 1 µM.
Take `FC(F)(F)c1cccc(-c2ccc(CO[C@H]3Cc4ccccc4[C@H]3N=C=S)cc2)c1` [Example 61, (1R,2S)-1-isothiocyanato-2-((3′-(trifluoromethyl)-[1,1′-biphenyl]-4-yl)methoxy)-2,3-dihydro-1H-indene]: the IC50 was greater than 1 µM.
`CCCCCCCCCCCCCCCC(=O)NCCN=C=S` [Example 6, N-(2-isothiocyanatoethyl)palmitamide]: the IC50 is greater than 1 µM.
On to `S=C=N[C@H]1C[C@H](OCc2ccc(-c3ccccc3)cc2)C1` [Example 30, 4-(((1R,3R)-3-isothiocyanatocyclobutoxy)methyl)-1,1′-biphenyl], for which the IC50 was greater than 1 µM.
For `S=C=NCCCCc1ccccc1` [Example 1, (4-isothiocyanatobutyl)benzene], the IC50 was greater than 1 µM.
Take `S=C=NCc1ccc(COc2ccccc2)cc1` [Example 15, 1-(Isothiocyanatomethyl)-4-(phenoxymethyl)benzene]: the 50% inhibitory concentration (IC50) is greater than 1 µM.
Same read-out and setting: next, `CN(Cc1ccc(-c2ccccc2)cc1)C1CC(N=C=S)C1` [Example 53, (1R,3R)—N-([1,1′-Biphenyl]-4-ylmethyl)-3-isothiocyanato-N-methylcyclobutan-1-amine]: greater than 1 µM.
As to `COc1ccc(-c2ccc(F)c(CO[C@H]3C[C@@H](N=C=S)C3)c2)cc1F` [Example 43, 3,4′-Difluoro-3′-(((1S,3S)-3-isothiocyanatocyclobutoxy)methyl)-4-methoxy-1,1′-biphenyl], the IC50 is greater than 1 µM.
Same read-out and setting: next, `COc1ccc(-c2ccc(COC3CCC(N=C=S)CC3)cc2)cc1F` (stereo not shown) [Example 59, 3-Fluoro-4′-((((1r,4r)-4-isothiocyanatocyclohexyl)oxy)methyl)-4-methoxy-1,1′-biphenyl]: 0.11 to 1 µM; `Fc1cc(Br)ccc1COC1CC(N=C=S)C1` [Example 44, 4-Bromo-2-fluoro-1-(((1R,3R)-3-isothiocyanatocyclobutoxy)methyl)benzene]: 0.11 to 1 µM.
As to `S=C=Nc1ccc(Cc2ccncc2)cc1` [Example 8, 4-(4-Isothiocyanatobenzyl)pyridine], the IC50 is greater than 1 µM.
Same read-out and setting: next, `Cc1noc(C)c1-c1ccc(COC2CC(N=C=S)C2)c(F)c1` [Example 45, 4-(3-Fluoro-4-(((1R,3R)-3-isothiocyanatocyclobutoxy)methyl)phenyl)-3,5-dimethylisoxazole]: greater than 1 µM; `CN(Cc1ccc(-c2ccc3c(c2)OCO3)cc1)C1CC(N=C=S)C1` [Example 55, (1R,3R)—N-(4-(benzo[d][1,3]dioxol-5-yl)benzyl)-3-isothiocyanato-N-methylcyclobutan-1-amine]: greater than 1 µM; `N#Cc1cccc(C(=O)OCCCCCc2ccccc2)n1` [Example 114, 5-phenylpentyl 6-cyanopicolinate]: greater than 1 µM.
On to `COc1ccc(-c2ccc(CO[C@@H]3Cc4ccccc4[C@@H]3N=C=S)cc2)cc1F` [Example 62, (1S,2R)-2-((3′-fluoro-4′-methoxy-[1,1′-biphenyl]-4-yl)methoxy)-1-isothiocyanato-2,3-dihydro-1H-indene], for which the IC50 was greater than 1 µM.
Regarding `COc1ccc(CCCCCCCCCCN=C=S)cc1` [Example 17, 1-(10-Isothiocyanatodecyl)-4-methoxybenzene], the concentration for half-maximal inhibition (IC50) is greater than 1 µM.
Consider `S=C=NCc1ccc(N2CCOCC2)cc1` [Example 10, 4-(4-(Isothiocyanatomethyl)phenyl)morpholine], for which the IC50 is greater than 1 µM.
